From paper PMC4249970 (PLoS ONE, 2014)
Blank lines part the entries; values can stand above or below the compound they belong to.

Columns and labels:
[1] = tested on: acetic acid-induced writhing in CD-1 male mice; assay: acetic acid writhing test (model of visceral pain); type: in vivo; settings: for number of stretches: writhing test 30 minutes after antagonist
Experimental: After acetic acid administration, mice were placed in individual transparent containers and, after 5 min, the number of writhes was counted during a 10 min period.
The animals, CD-1 male mice (25–27 g), were redistributed in groups, two of which were used as the control group. […] All drugs were intraperitoneally (i.p.) administered, 30 minutes before the algogen agent. Control mice were treated with 10 ml/kg of saline solution. Each group included 10–12 animals; those animals showing behavioral alterations were previously discarded. Each animal was used only once. An observer who was unaware of the different treatments carried out the collection of data.
The experimental test used was the acetic acid writhing test. The effect of the i.p. administration of 10 ml/kg of acetic acid (2%) was measured by quantifying the number of writhing responses in the three groups of animals over a 10 minutes period. Responses were measured starting 5 minutes after the algogen agent was administered. The animals used were supplied by the animal house of Universidad Rey Juan Carlos. Room temperature was kept at 22±1°C. A 12 hours light - dark cycle was started at 8:00 a.m., at constant humidity. All animals were given free access to food and water.

TRPA1 [2] = target: T1, TRPA1 (Homo sapiens, UniProt O75762); assay: whole-cell voltage clamp of AITC-evoked currents in hTRPA1-expressing IMR-90 cells; type: cell-based; design: expressed in transfected cells; host or cells: IMR-90; settings: 100 µM AITC
Experimental: A) Representative whole-cell voltage clamp recording from hTRPA1-expressing IMR-90. Currents were measured every second during a holding potential of -60 mV. Pre-application of 6a/b (20 s) was followed by co-application with 100 µM AITC for 60s in presence of 2.0 mM extracellular Ca^2+. Current traces of different colours denote the different concentrations of compound 6a/b tested. B) Dose response of compound 6a/b blockade activity. Solid line depicts the fitting to a Michaelis isotherm. […] Data are given as mean ± sem, with n≥4 cells) per data point. (TIF) Click here for additional data file.
A) Representative whole-cell voltage clamp recording from hTRPA1-expressing IMR-90 cells in the absence of extracellular Ca^2+. Ionic currents, at positive and negative potentials were measured every 2s during a 350 ms voltage ramp from −60 mV to +60 mV and evoked with 100 µM AITC followed by the addition of 100 µM compound 6a/b for 20s. AITC was present with drug application and after application to evaluated current reversibility B) Current-voltage relationships of TRPA1 in the absence and presence of 100 µM compound 6a/b in Ca^2+ free medium. […] Data were obtained from n≥4 cells. (TIF) Click here for additional data file.

TRPA1 [3] = target: T1, TRPA1; assay: Ca2+ fluorographic assay, TRPA1-IMR90 cells activated with 100 µM AITC; type: cell-based; design: expressed in transfected cells; host or cells: IMR90
Experimental: (§1) For fluorescence assays, cells expressing TRP channels (TRPV1-SH-SY5Y, TRPM8-HEK and TRPA1-IMR90) were seeded in 96-well plates (Corning Incorporated, Corning, NY) at a cell density of 40,000 cells 2 days before treatment. The day of treatment the medium was replaced with 100 µL of the dye loading solution Fluo-4 NW supplemented with probenecid 2.5 mM. Then the compounds dissolved in DMSO were added at the desired concentrations and the plate(s) were incubated at 37°C in a humidified atmosphere of 5% CO2 for 60 minutes.
(§2) The fluorescence was measured using instrument settings appropriate for excitation at 485 nm and emission at 535 nm. (POLARstar Omega BMG LAB tech). A baseline recording of 7 cycles was recorded prior to stimulation with the agonist (10 µM capsaicin for TRPV1, 100 µM menthol for TRPM8, and 100 µM AITC for TRPA1). The corresponding antagonist (10 µM Ruthenium Red for TRPV1 and TRPA1, 100 µM AMTB for TRPM8) was added for the blockade. The changes in fluorescence intensity were recorded during 15 cycles more. DMSO, at the higher concentration used in the experiment, was added to the control wells.
(§3) The degree of blockage (%) of TRP channel activity was calculated by: [drawing 1]

human recombinant COX-2 = target: T2, human recombinant COX-2 (Homo sapiens, UniProt P35354); assay: COX inhibitor screening assay (Cayman kit 700100); type: biochemical; settings: at 10 mM
T2 construct: purchased Cayman Chemical Company kit 700100
T2 sequence (P35354 18-604): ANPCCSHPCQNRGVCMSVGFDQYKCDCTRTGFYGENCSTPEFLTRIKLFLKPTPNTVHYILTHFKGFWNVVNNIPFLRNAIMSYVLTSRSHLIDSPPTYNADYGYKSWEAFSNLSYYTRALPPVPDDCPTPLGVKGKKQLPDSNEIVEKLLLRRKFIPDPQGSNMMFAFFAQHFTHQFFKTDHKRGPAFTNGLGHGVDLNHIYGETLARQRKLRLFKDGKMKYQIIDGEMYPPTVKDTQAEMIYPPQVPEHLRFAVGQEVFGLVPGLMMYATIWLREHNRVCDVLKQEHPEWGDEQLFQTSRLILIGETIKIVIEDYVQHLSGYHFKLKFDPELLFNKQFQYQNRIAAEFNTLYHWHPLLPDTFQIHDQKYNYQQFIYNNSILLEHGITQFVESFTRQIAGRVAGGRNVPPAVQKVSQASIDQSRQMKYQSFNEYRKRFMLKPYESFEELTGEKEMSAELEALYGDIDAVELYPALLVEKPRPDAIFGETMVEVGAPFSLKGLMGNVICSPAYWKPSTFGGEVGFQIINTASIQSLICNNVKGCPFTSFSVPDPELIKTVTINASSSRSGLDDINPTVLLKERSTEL
From the text: A COX inhibitor screening assay (kit 700100) was used to determine the activity of isolated ovine COX-1 and human recombinant COX-2 as described by the manufacturer (Cayman Chemical Company, USA).

TRPV1 = assay: Ca2+ fluorographic assay, TRPV1-SH-SY5Y cells activated by 10 µM capsaicin; type: cell-based; settings: 50 µM compound
Experimental: as §1, §2, §3

TRPM8 = target: T3, TRPM8 (Homo sapiens, UniProt Q7Z2W7); assay: Ca2+ fluorographic assay, TRPM8-HEK cells activated with 100 µM menthol; type: cell-based; settings: 50 µM compound
T3 construct: expressed in transfected cells; host or cells: HEK
Experimental: as §1, §2, §3

[4] = i.p. 30 minutes before acetic acid

T1 sequence (O75762 whole entry): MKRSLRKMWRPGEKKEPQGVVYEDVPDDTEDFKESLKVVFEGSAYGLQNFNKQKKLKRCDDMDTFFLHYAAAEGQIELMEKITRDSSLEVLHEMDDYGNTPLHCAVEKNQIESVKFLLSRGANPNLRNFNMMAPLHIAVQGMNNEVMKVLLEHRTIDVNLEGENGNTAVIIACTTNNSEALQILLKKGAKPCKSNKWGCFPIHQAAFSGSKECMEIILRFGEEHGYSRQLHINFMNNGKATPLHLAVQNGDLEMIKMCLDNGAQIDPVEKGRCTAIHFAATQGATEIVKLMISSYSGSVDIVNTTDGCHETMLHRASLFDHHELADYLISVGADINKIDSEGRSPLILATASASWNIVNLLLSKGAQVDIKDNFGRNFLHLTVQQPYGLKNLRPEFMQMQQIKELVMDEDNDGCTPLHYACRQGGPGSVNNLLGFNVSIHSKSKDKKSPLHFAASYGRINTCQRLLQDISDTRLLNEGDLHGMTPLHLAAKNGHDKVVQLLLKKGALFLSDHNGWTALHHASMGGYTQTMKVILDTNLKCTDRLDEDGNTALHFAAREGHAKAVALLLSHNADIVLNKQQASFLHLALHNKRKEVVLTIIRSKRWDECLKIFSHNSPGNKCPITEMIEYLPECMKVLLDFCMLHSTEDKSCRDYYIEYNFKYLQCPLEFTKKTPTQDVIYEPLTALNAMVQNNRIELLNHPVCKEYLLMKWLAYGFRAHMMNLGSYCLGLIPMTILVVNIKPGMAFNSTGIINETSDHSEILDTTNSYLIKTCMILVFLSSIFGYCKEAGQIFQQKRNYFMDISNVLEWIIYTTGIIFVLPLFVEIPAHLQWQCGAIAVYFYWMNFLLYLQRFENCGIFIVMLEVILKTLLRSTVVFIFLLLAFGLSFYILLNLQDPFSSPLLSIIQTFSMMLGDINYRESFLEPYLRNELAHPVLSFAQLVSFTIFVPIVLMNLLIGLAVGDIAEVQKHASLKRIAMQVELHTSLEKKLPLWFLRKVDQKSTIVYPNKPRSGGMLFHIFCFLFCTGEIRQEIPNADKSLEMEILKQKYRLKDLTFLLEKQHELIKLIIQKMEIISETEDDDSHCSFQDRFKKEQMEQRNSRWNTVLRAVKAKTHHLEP
T3 sequence (Q7Z2W7 whole entry, species assumed): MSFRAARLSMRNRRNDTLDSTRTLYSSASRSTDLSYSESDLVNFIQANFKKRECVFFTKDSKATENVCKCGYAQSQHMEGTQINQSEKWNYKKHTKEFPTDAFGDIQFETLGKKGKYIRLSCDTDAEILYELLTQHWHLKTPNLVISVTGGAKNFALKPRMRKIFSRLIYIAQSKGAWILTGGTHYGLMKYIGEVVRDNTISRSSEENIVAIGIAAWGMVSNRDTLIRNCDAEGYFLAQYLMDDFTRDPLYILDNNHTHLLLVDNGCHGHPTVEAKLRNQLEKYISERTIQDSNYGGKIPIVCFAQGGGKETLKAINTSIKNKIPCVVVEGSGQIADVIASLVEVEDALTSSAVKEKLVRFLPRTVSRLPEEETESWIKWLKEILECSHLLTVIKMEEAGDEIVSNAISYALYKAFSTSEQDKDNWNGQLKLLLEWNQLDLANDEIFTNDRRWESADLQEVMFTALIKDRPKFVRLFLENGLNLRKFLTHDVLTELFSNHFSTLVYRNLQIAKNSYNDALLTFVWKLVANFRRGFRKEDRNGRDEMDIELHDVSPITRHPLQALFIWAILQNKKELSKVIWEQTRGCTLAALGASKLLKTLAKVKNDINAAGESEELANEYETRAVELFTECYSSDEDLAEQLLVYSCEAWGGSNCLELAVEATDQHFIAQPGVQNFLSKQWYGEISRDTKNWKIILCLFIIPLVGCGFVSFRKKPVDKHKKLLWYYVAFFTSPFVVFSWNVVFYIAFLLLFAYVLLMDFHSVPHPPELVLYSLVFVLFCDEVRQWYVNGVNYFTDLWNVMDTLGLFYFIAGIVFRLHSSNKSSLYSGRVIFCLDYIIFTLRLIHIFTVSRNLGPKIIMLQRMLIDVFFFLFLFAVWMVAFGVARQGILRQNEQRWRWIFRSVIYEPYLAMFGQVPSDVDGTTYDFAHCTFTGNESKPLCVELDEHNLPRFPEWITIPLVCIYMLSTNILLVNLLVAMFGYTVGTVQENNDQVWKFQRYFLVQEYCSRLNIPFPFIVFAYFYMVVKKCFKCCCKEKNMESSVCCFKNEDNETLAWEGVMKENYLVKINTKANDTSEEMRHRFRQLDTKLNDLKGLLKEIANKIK

Compound: CC(=O)NC12CC3CC(CC(O)(C3)C1)C2 [compound 5, N-3-hydroxyadamantan-1-yl acetamide]
- dose at which the analgesic effect saturated [1, 4]: 200 mg/kg
- antinociceptive activity ([1]; i.p. 30 minutes before acetic acid, similar to paracetamol): ~40%

- melting point: 184 °C
Compound: CC(=O)NC1C2CC3CC1CC(O)(C3)C2 (stereo not shown) [compound 6a, N-5-hydroxyadamantan-2-yl acetamide]

- IC50 (TRPA1 [2]; 2.0 mM extracellular Ca2+, holding potential -60 mV, estimated, read-out: IC50 of blockade of TRPA1-mediated currents): 10.6 ± 0.7 µM
- IC50 (TRPA1 [2]; absence of extracellular Ca2+, inferred, saturation of blockade not reached, read-out: IC50 of blockade of TRPA1 currents): ≥ 80 µM
- blockade of TRPA1 channel activity (TRPA1 [3]; 50 µM compound, 100 µM AITC): up to 85%
- IC50 (TRPA1 [3]; dose-response curve, 100 µM AITC, mean ± SEM, n ≥5, read-out: TRPA1 inhibition IC50): 2.6 µM
- nH (hill coefficient) of TRPA1 inhibition (TRPA1 [3]; fit to a binding isotherm): 0.21
- effect on COX-2 enzymatic activity (human recombinant COX-2): did not affect the enzymatic activity
- effect on TRPM8 channel activity (TRPM8): No significative effect
Compound: CC(=O)NC1C2CC3CC1CC(O)(C3)C2 (stereo not shown) [compound 6a/b, N-5-hydroxyadamantan-2-yl acetamide]
- analgesic efficacy at saturation, compared with paracetamol and morphine ([1]; at saturation (750 mg/kg i.p.)): significantly higher than paracetamol and similar to morphine
- number of stretches ([1]; compound given 30 minutes before CB1 antagonist AM251 (3 mg/kg i.p.)): 13±1
- number of stretches ([1]; compound given 30 minutes before CB2 antagonist AM630 (1 mg/kg i.p.)): 15.5±1.7
- dose at which the analgesic effect saturated [1, 4]: 750 mg/kg
- effect on TRPV1 channel activity (TRPV1): No significative effect

Compound: CC(=O)Nc1ccc(O)cc1 [paracetamol, 4-hydroxyacetanilide, reference compound]
- reduction of the nociceptic behavior (writhes) ([1]; 100 mg/kg i.p. 30 minutes before acetic acid): 40%
